Test results as given in patent publication US9670223B2, “Compounds with super-aspirin effects” (SOLVOTRIN THERAPEUTICS LTD., priority 2011, dated 2017).
“Also recorded” adds a separate entry of the source.

Experiments:
[1] = tested on: washed platelets (WP); test: Collagen-induced platelet aggregation in washed platelets (light aggregometry); type: cell-based, human; design: IC50: unit of the concentration uncertain; settings: for IC50: inhibition of platelet aggregation in response to collagen (5 (unit uncertain)), washed platelets; for effect of eserine on inhibition of collagen-induced aggregation in WP: physostigmine (eserine) 10 μM
Experimental: (§1) PRP and WP (2.5×10^8 platelets ml^−1) were prepared from blood. Briefly 36 ml whole blood was collected into 4 ml of 3.15% sodium citrate; this was centrifuged at 250 ¥g for 20 min (with gentle acceleration and deceleration). At this point PRP, which had separated from white blood cells and red blood cells, was gently removed. When WP were required this PRP was centrifuged at 700 g for 10 min (with gentle acceleration and deceleration) in the presence of prostacyclin. The platelet-poor plasma (PPP) was removed and the platelet pellet was washed three times with Tyrode's buffer, before being re-suspended in Tyrode's buffer to a concentration of 2.5 ¥108 platelets/ml.
(§2) Platelet aggregation was measured by light aggregometry. […] Aggregation was initiated by the addition of agonists, and monitored by Aggro-Link software for at least 6 min.
(§3) To study the aggregatory potency of ADP, the concentration-response (0.3-10 μM) curves were generated. Collagen at different concentrations (2-5 μg/ml) was also used to induce platelet aggregation. Submaximal concentrations of agonists, i.e. the concentrations that gave approximately 95% of the maximal aggregation were used to study the effects of inhibitors of aggregation. Aspirin and aspirin prodrugs was incubated for various intervals prior to the addition of aggregating agents.
To study the involvement of plasma BuChE in the activation of ST0701, purified BuChE (3 U/ml) was incubated with WP for 5 min in the aggregometer with stirring at 900 r.p.m. before the addition of the test compounds ST0701 which was incubated with the WP for a further 10 min, prior to the addition of collagen (5 ug/ml).
(§4) Eserine (in DMSO, 10 μM, giving a final concentration≦0.25% DMSO, which pilot studies had determined not to affect platelet aggregation) was preincubated with PRP or WP for 5 min in the aggregometer with stirring at 900 r.p.m. before the addition of test compounds (ST0701-05), which were incubated in PRP or WP for a further 10 min prior to the addition of an agonist (10 μM ADP or 5 μg/ml Collagen) to induce platelet aggregation.
Phenylmethylsulphonylfluoride (PMSF) 20, 50 and 100 μM dissolved in EtOH (<0.2% EtOH, which pilot studies had determined not to affect platelet aggregation) was preincubated in WP in the aggregometer for 5 min with stirring at 900 r.p.m. before the addition of test compound ST0702 to the WP, which was further incubated for 10 min prior to the addition of collagen (2 μg/ml) to induce platelet aggregation.

[2] = tested on: platelet rich plasma (PRP); test: Collagen-induced platelet aggregation in platelet rich plasma (light aggregometry); type: cell-based, human
Experimental: as §1, §2, §3, §4

[3] = tested on: platelet rich plasma (PRP); test: ADP-induced platelet aggregation in PRP; type: cell-based, human; settings: ADP 10 μM, PRP; for effect of ODQ pretreatment on inhibition of ADP induced aggregation: ODQ 10 μM, compounds 100 μM
Experimental: as §1, §2, §3, §4
1H-[1,2,4]Oxadiazolo[4,3-a]quinoxalin-1-one (ODQ, dissolved in 100% DMSO, used at a final concentration of 10 μM, which gave a final concentration not more than 0.25% DMSO) was preincubated with PRP or WP for 5 min in the aggregometer with stirring at 900 r.p.m. before the addition of test compounds (ST0701-05), which were incubated in PRP or WP for a further 10 min prior to the addition of an agonist (10 μM ADP or 5 μg/ml collagen) to induce platelet aggregation.
Eserine (10 μM) was incubated with PRP for 5 min in the aggregometer with stirring at 900 r.p.m. before the addition of test compound ST0702 salicylate (500 μM), which was incubated in PRP for a further 10 min prior to the addition of the agonist ADP (10 μM) to induce platelet aggregation.

[4] = tested on: TxB2; test: TxB2 suppression after single oral gavage dose; type: in vivo, cynomolgus monkey; settings: Phase 2A, single oral gavage, ST0702 9.6 mg/kg, aspirin 4.2 mg/kg, 1 and 24 hours post dosing
[5] = tested on: 59M cells; test: Tumour cell-induced platelet aggregation (TCIPA), static conditions, 59M; type: cell-based, human; settings: for inhibition of TCIPA induced by 59M: static, WP, 300 and 500 μM, 59M 1×10^3/ml
Source text: ISAS meanwhile is hydrolysed to aspirin and salicylic acid. […] The structure of platelet-tumor cell aggregates was studied using phase-contrast microscopy (Alonso-Escolano et al., 2004; Jurasz et al., 2001). […] Aliquots of each sample were then taken for phase-contrast microscopy examination using an Olympus CKX41 microscope (Olympus America Inc., […].). Photomicrographs were captured using a digital camera and MicroFire (Olympus America Inc.) software (Alonso-Escolano et al., 2004; Jurasz et al., 2001).

[6] = cited from earlier work; for % Aspirin release: in human plasma, From Reference 7
[7] = 200 μM in PRP, collagen 5 μg/ml

In the case of CC(=O)Oc1ccccc1C(=O)O [Aspirin], the IC50 ([1]; Homo sapiens, Platelet) is reported as 35 µM, the IC50 [1] is reported as 34 µM and the “effect of eserine on inhibition of collagen-induced aggregation in WP” value [1] is reported as “did not affect the inhibitory actions”. The “effect of eserine on inhibition of collagen-induced aggregation in PRP” value ([2]; compounds 300 μM, physostigmine (eserine) 10 μM) was “did not exert significant effects”, the “inhibition of ADP (10 μM) induced aggregation in PRP, comparison in words” value [3] was “consistently less inhibition of aggregation than ST0701/02” and the “effect of ODQ pretreatment on inhibition of ADP induced aggregation” value [3] was “increased the inhibition”. For the same compound, the “TxB2 suppression (TxB2 levels as percentage of baseline), in words” value [4] was “effective”, the “inhibition of TCIPA induced by 59M” value [5] was “did not exert any significant effect” and the “inhibition of TCIPA induced by 59M” value ([5]; listed as aspirin) was “did not exert a significant effect”. The “% Aspirin release” value [6] was 100%.

For CC(=O)Oc1ccccc1C(=O)O[C@H]1CO[C@H]2[C@@H]1OC[C@H]2OC(=O)c1cccnc1 [ST0702, isosorbide-2-aspirinate-5-nicotinate], the IC50 ([1]; Homo sapiens, Platelet) was 154 µM, the “effect of ST0702 on collagen-induced aggregation in WP after PMSF pretreatment” value ([1]; PMSF 50 μM, 20 μM, not significant) was “slightly attenuated” and the “effect of ST0702 on collagen-induced aggregation in WP after PMSF pretreatment” value ([1]; PMSF 100 μM, ST0702 200 μM (200-300 μM elsewhere in the source), collagen 2 μg/ml) was “significantly attenuated; also recorded: abolished”. The “effect of eserine on inhibition of collagen-induced aggregation in WP” value [1] was “not abolished”, the “inhibition of aggregation following 0-5 min preincubation” value [2, 7] was “No significant inhibition” and the “preincubation time at which inhibition is maximal” value [2, 7] was 15 to 20 min. The “inhibition of ADP (10 μM) induced aggregation in PRP, comparison in words” value [3] was “more efficacious than aspirin”, the “effect of ODQ pretreatment on inhibition of ADP induced aggregation” value [3] was “increased the inhibition” and the “TxB2 suppression (TxB2 levels as percentage of baseline), in words” value [4] was “effective”. The “effect on TCIPA when tumour cells were preincubated with compound” value ([5]; 59M cells preincubated) was “no effect on TCIPA”, the “inhibition of TCIPA induced by 59M” value [5] was “consistently inhibited TCIPA” and the “aspirin released in vitro” value ([6]; human plasma solution / in-vitro, of available (stoichiometric) aspirin, listed as ISANA) was 40%. The “% Aspirin release” value [6] was 30-45%.
